Assays:
Assay in all cases: Carna kinase panel screen
Assay type in all cases: biochemical
Settings in all cases: read-out: % Inhibition ± SD
[1] = target: T1, AXL (Homo sapiens, UniProt P30530)
T1 construct: purchased Carna Biosciences
Procedure, shortened: (§1)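 Read-out is percent inhibition, plotted against compound concentration and fitted to a four-parameter logistic model to give IC50. Curves comprised 10 points, with ATP approximating Km.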

[2] = target: T2, BTK (Homo sapiens, UniProt Q06187)
T2 construct: purchased Carna Biosciences
Procedure, shortened: as §1

[3] = target: T3, CDK5 (Homo sapiens, UniProt Q00535)
T3 construct: purchased Carna Biosciences
Procedure, shortened: as §1

[4] = target: T4, COT (Homo sapiens, UniProt P41279)
T4 construct: purchased Carna Biosciences
Procedure, shortened: as §1

[5] = target: T5, CSK (Homo sapiens, UniProt P41240)
T5 construct: purchased Carna Biosciences
Procedure, shortened: as §1

[6] = target: T6, CTK (Homo sapiens, UniProt P42679)
T6 construct: purchased Carna Biosciences
Procedure, shortened: as §1

[7] = target: T7, CaMK1d (Homo sapiens, UniProt Q8IU85)
T7 construct: purchased Carna Biosciences
Procedure, shortened: as §1

[8] = target: T8, DDR2 (Homo sapiens, UniProt Q16832)
T8 construct: purchased Carna Biosciences
T8 sequence (Q16832 22-855): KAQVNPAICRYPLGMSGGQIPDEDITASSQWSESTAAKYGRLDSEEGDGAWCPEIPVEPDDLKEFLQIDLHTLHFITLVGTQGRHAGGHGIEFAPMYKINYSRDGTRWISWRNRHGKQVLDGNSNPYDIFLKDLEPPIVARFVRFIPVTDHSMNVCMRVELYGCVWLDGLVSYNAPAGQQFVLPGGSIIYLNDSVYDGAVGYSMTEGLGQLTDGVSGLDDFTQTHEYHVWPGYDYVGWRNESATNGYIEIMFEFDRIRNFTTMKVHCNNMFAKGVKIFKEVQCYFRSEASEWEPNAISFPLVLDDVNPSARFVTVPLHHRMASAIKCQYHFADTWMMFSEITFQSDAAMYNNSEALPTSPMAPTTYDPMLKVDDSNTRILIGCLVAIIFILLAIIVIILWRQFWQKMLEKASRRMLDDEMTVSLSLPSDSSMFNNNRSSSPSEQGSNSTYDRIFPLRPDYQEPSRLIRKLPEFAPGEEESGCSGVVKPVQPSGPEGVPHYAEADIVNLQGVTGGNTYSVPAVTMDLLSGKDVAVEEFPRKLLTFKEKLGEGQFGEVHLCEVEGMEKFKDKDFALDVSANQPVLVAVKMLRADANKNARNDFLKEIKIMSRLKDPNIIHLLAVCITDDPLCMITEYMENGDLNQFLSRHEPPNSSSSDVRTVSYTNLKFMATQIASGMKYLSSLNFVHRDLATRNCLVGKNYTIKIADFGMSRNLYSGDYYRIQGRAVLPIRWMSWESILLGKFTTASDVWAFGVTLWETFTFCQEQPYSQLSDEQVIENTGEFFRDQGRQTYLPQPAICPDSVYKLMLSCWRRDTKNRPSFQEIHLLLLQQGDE
Procedure, shortened: as §1

[9] = target: T9, DYRK1B (Homo sapiens, UniProt Q9Y463)
T9 construct: purchased Carna Biosciences
Procedure, shortened: as §1

[10] = target: T10, EphA2 (Homo sapiens, UniProt P29317)
T10 construct: purchased Carna Biosciences
T10 sequence (P29317 24-976): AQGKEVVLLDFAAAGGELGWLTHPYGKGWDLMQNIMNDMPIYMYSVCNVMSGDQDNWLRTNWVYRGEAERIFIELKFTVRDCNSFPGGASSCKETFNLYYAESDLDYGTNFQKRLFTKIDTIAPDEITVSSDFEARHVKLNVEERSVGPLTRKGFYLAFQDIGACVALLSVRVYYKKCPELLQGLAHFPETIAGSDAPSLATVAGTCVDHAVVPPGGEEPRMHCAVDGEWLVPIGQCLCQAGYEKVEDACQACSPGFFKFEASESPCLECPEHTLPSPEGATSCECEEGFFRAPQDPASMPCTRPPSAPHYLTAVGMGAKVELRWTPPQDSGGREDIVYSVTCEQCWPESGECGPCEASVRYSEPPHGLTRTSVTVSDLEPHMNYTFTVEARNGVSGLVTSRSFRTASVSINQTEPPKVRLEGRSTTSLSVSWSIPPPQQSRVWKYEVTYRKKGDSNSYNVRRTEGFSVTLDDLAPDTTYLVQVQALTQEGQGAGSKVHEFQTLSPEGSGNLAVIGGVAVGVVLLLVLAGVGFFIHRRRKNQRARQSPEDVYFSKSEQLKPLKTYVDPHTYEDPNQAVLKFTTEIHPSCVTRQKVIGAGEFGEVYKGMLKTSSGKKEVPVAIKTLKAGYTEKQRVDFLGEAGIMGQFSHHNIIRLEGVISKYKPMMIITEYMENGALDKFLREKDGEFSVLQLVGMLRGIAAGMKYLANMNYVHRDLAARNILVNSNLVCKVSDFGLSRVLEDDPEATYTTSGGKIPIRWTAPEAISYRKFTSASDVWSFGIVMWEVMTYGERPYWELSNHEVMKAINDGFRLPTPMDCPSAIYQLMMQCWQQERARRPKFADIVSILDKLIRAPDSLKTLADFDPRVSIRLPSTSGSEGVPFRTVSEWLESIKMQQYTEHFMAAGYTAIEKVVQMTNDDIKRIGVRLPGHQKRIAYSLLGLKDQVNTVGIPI
Procedure, shortened: as §1

[11] = target: T11, EphA6 (Homo sapiens, UniProt Q9UF33)
T11 construct: purchased Carna Biosciences
T11 sequence (Q9UF33 23-1036): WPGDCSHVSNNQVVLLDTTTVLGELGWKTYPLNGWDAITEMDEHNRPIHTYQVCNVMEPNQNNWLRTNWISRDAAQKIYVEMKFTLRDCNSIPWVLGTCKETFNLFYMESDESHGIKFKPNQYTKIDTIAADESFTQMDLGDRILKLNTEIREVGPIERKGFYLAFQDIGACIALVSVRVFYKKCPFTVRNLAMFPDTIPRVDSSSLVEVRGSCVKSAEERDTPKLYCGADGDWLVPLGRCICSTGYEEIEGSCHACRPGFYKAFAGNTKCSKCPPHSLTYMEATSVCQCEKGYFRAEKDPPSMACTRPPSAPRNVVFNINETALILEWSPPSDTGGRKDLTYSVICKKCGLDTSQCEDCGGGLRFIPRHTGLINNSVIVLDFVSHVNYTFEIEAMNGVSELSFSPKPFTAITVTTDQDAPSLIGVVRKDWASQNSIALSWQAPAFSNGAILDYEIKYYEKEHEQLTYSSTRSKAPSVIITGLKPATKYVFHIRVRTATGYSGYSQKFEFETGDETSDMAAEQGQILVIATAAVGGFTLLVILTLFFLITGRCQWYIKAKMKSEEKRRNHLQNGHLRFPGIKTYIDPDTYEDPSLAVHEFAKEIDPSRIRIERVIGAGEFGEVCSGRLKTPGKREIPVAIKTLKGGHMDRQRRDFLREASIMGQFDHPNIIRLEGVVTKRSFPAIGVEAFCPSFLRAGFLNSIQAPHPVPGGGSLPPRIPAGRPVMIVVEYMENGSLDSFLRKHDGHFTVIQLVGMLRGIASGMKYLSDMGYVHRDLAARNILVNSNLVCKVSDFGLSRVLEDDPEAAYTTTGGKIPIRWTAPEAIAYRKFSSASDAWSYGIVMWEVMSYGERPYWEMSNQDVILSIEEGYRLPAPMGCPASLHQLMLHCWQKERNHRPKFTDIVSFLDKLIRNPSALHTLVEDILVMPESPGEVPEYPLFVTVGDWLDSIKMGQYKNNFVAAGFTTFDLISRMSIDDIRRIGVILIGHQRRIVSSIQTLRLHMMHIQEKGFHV
Procedure, shortened: as §1

[12] = target: T12, EphA7 (Homo sapiens, UniProt Q15375)
T12 construct: purchased Carna Biosciences
Procedure, shortened: (§2)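 ATP was used at roughly Km levels while compounds were titrated over a 10-point curve. IC50 values came from four-parameter logistic fits of concentration versus percentage inhibition.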

[13] = target: T13, FGFR3[K650M] (Homo sapiens, UniProt P22607, K650M)
T13 construct: purchased Carna Biosciences
Procedure, shortened: as §2

[14] = target: T14, FGFR4 (Homo sapiens, UniProt P22455)
T14 construct: purchased Carna Biosciences
Procedure, shortened: as §1

[15] = target: T15, FGR (Homo sapiens, UniProt P09769)
T15 construct: purchased Carna Biosciences
Procedure, shortened: as §2

[16] = target: T16, FLT4 (Homo sapiens, UniProt P35916)
T16 construct: purchased Carna Biosciences
T16 sequence (P35916 25-1363): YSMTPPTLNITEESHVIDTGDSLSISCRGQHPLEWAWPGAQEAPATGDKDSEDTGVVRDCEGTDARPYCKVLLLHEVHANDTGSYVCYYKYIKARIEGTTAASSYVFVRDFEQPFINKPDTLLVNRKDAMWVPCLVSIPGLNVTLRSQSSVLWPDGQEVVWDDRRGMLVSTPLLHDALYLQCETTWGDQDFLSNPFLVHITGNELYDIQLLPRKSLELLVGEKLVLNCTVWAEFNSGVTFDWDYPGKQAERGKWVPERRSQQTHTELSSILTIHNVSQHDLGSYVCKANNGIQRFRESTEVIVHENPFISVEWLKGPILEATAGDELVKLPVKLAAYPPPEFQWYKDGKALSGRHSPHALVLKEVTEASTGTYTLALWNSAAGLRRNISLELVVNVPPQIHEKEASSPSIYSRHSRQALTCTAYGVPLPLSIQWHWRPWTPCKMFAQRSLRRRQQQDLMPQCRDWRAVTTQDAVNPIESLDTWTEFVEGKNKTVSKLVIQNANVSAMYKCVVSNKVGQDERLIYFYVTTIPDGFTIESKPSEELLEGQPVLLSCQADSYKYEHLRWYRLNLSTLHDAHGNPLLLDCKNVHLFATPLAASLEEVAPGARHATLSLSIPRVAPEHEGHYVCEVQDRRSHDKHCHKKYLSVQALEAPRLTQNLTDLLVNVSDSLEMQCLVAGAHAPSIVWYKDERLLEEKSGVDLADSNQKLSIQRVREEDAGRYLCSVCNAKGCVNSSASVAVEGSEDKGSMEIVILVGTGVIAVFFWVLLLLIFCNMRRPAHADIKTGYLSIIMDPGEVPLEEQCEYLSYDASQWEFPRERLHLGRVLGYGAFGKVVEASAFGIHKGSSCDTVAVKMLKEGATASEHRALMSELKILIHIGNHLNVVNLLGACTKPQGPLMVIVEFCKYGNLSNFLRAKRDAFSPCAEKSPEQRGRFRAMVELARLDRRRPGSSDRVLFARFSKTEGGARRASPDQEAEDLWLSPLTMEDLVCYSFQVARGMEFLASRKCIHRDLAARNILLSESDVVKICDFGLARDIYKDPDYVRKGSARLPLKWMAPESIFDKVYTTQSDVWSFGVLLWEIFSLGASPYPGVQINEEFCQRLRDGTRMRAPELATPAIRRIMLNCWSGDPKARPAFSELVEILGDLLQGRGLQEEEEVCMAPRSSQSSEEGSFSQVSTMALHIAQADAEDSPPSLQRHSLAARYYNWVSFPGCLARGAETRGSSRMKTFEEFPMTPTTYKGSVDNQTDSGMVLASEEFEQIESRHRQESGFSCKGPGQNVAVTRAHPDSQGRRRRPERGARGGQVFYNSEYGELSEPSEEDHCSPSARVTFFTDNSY
Procedure, shortened: as §1

[17] = target: T17, FRK (Homo sapiens, UniProt P42685)
T17 construct: purchased Carna Biosciences
Procedure, shortened: as §1

[18] = target: T18, HIPK1 (Homo sapiens, UniProt Q86Z02)
T18 construct: purchased Carna Biosciences
Procedure, shortened: as §1

[19] = target: T19, IRR (Homo sapiens, UniProt P14616)
T19 construct: purchased Carna Biosciences
Procedure, shortened: as §2

[20] = target: T20, KDR (Homo sapiens, UniProt P35968)
T20 construct: purchased Carna Biosciences
Procedure, shortened: as §1

[21] = target: T21, LOK (Homo sapiens, UniProt O94804)
T21 construct: purchased Carna Biosciences
Procedure, shortened: as §1

[22] = target: T22, LTK (Homo sapiens, UniProt P29376)
T22 construct: purchased Carna Biosciences
Procedure, shortened: as §1

[23] = target: T23, LYNa (Homo sapiens, UniProt P07948)
T23 construct: purchased Carna Biosciences
Procedure, shortened: as §1

[24] = target: T24, MAPKAPK2 (Homo sapiens, UniProt P49137)
T24 construct: purchased Carna Biosciences
Procedure, shortened: as §1

[25] = target: T25, MAPKAPK3 (Homo sapiens, UniProt Q16644)
T25 construct: purchased Carna Biosciences
Procedure, shortened: as §1

[26] = target: T26, MAPKAPK5 (Homo sapiens, UniProt Q8IW41)
T26 construct: purchased Carna Biosciences
Procedure, shortened: as §1

[27] = target: T27, MET[Y1235D] (Homo sapiens, UniProt P08581, Y1235D)
T27 construct: purchased Carna Biosciences
Procedure, shortened: as §1

[28] = target: T28, MNK1 (Homo sapiens, UniProt Q9BUB5)
T28 construct: purchased Carna Biosciences
Procedure, shortened: as §1

[29] = target: T29, MNK2 (Homo sapiens, UniProt Q9HBH9)
T29 construct: purchased Carna Biosciences
T29 sequence (Q9HBH9 whole entry): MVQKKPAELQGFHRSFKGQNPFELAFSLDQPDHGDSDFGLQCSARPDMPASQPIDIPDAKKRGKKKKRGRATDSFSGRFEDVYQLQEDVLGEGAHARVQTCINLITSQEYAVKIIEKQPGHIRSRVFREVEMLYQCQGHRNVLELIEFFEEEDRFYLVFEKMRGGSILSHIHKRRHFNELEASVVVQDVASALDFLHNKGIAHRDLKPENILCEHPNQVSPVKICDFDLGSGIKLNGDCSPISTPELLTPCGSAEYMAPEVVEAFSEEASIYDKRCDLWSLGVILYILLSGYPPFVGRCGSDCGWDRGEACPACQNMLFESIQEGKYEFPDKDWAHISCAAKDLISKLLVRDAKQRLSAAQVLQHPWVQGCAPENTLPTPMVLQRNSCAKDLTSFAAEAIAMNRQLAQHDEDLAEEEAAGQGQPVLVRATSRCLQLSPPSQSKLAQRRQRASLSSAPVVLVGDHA
Procedure, shortened: as §1

[30] = target: T30, NEK1 (Homo sapiens, UniProt Q96PY6)
T30 construct: purchased Carna Biosciences
Procedure, shortened: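 IC50 from a 10-point concentration series run at ATP near Km; percent inhibition per concentration fitted to a four-parameter logistic curve.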

[31] = target: T31, PIM1 (Homo sapiens, UniProt P11309)
T31 construct: purchased Carna Biosciences
T31 sequence (P11309 whole entry): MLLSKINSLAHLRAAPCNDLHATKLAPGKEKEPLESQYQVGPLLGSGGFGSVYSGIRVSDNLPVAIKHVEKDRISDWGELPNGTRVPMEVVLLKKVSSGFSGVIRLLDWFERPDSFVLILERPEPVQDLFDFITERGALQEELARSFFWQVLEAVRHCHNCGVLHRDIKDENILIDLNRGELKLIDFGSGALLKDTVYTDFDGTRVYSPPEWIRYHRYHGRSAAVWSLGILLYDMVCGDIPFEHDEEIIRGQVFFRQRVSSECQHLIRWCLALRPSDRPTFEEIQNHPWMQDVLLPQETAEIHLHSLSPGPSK
Procedure, shortened: as §1

[32] = target: T32, PKCb2 (Homo sapiens, UniProt P05771)
T32 construct: purchased Carna Biosciences
Procedure, shortened: as §1

[33] = target: T33, PKCi (Homo sapiens, UniProt P41743)
T33 construct: purchased Carna Biosciences
Procedure, shortened: as §1

[34] = target: T34, PKCq (Homo sapiens, UniProt Q04759)
T34 construct: purchased Carna Biosciences
Procedure, shortened: as §1

[35] = target: T35, PLK1 (Homo sapiens, UniProt P53350)
T35 construct: purchased Carna Biosciences
Procedure, shortened: as §1

[36] = target: T36, RON (Homo sapiens, UniProt Q04912)
T36 construct: purchased Carna Biosciences
Procedure, shortened: as §1

[37] = target: T37, RSK3 (Homo sapiens, UniProt Q15349)
T37 construct: purchased Carna Biosciences
Procedure, shortened: as §1

[38] = target: T38, SGK (Homo sapiens, UniProt O00141)
T38 construct: purchased Carna Biosciences
Procedure, shortened: as §1

[39] = target: T39, SGK3 (Homo sapiens, UniProt Q96BR1)
T39 construct: purchased Carna Biosciences
Procedure, shortened: as §1

[40] = target: T40, TEC (Homo sapiens, UniProt P42680)
T40 construct: purchased Carna Biosciences
Procedure, shortened: as §1

[41] = target: T41, TYK2 (Homo sapiens, UniProt P29597)
T41 construct: purchased Carna Biosciences
Procedure, shortened: as §1

[42] = target: T42, p38a (Homo sapiens, UniProt Q16539)
T42 construct: purchased Carna Biosciences
Procedure, shortened: as §1

[43] = target: T43, p38b (Homo sapiens, UniProt Q15759)
T43 construct: purchased Carna Biosciences
Procedure, shortened: as §1

CC[C@H](Nc1nc(NCc2cnc(C)cc2C)c2ncn(C(C)C)c2n1)[C@@H](C)O [Fadraciclib, 2-pentanol, 3-[[6-[[(4,6-dimethyl-3-pyridinyl)methyl]amino]-9-(1-methylethyl)-9Hpurin-2-yl]amino]-, (2R,3S)]
inhibition at 1 µM [1]: -11.1 ± 0.1% | inhibition at 1 µM [2]: 5.3 ± 0.4% | inhibition at 1 µM [3]: 98.1 ± 4% | inhibition at 1 µM [4]: -15.6 ± 0.4% | inhibition at 1 µM [5]: -18.7 ± 0.4% | inhibition at 1 µM [6]: 3.4 ± 0.2% | inhibition at 1 µM [7]: -14.5 ± 0.1% | inhibition at 1 µM [8]: -9.9 ± 0.1% | inhibition at 1 µM [9]: 15.5 ± 1.3% | inhibition at 1 µM [10]: 3.8% | inhibition at 1 µM [11]: 5.7 ± 0.3% | inhibition at 1 µM [12]: 6 ± 0.3% | inhibition at 1 µM [13]: 3.2 ± 0.1% | inhibition at 1 µM [14]: -14.8% | inhibition at 1 µM [15]: 3.3 ± 0.1% | inhibition at 1 µM [16]: 6.3 ± 0.2% | inhibition at 1 µM [17]: 3.6% | inhibition at 1 µM [18]: 6.8 ± 0.3% | inhibition at 1 µM [19]: -5.5% | inhibition at 1 µM [20]: -12.8 ± 0.1% | inhibition at 1 µM [21]: -23.8 ± 0.3% | inhibition at 1 µM [22]: 6.6 ± 0.1% | inhibition at 1 µM [23]: 2.2 ± 0.1% | inhibition at 1 µM [24]: -8.6 ± 0.1% | inhibition at 1 µM [25]: -6.1 ± 0.3% | inhibition at 1 µM [26]: -14.5 ± 0.2% | inhibition at 1 µM [27]: 2.4 ± 0.1% | inhibition at 1 µM [28]: -13.1 ± 1.6% | inhibition at 1 µM [29]: -4.3 ± 0.1% | inhibition at 1 µM [30]: -18.3 ± 0.1% | inhibition at 1 µM [31]: 7.4 ± 0.1% | inhibition at 1 µM [32]: -14.3 ± 0.1% | inhibition at 1 µM [33]: -13.6 ± 0.5% | inhibition at 1 µM [34]: 0.7% | inhibition at 1 µM [35]: 5.7 ± 0.3% | inhibition at 1 µM [36]: 1.6 ± 0.1% | inhibition at 1 µM [37]: 7.7% | inhibition at 1 µM [38]: -0.8% | inhibition at 1 µM [39]: 6.2 ± 0.1% | inhibition at 1 µM [40]: -14.9% | inhibition at 1 µM [41]: -0.1% | inhibition at 1 µM [42]: -13.3 ± 0.3% | inhibition at 1 µM [43]: -19 ± 0.2%

Reference: publication PMC7347136 (PLoS ONE, 2020)
